Experimental findings from US10370425B2, “Peptide antagonists of the calcitonin CGRP family of peptide hormones and their use” (priority 2012, dated 2019) are described below.

Positions of bridges follow the written chain, without caps; N, C: chain ends. Residues, ends and D or L forms follow the SMILES beside them. No end group written: not given here.

In the first test the target is T1, amylin receptor, AMY1, a CT (calcitonin) receptor/RAMP1 (receptor-activity modifying protein) complex (Homo sapiens, UniProt O60894+P30988).
T1 construct: host or cells: CHO-K1/AMY1/Gα15
T1 sequence (P30988 25-474): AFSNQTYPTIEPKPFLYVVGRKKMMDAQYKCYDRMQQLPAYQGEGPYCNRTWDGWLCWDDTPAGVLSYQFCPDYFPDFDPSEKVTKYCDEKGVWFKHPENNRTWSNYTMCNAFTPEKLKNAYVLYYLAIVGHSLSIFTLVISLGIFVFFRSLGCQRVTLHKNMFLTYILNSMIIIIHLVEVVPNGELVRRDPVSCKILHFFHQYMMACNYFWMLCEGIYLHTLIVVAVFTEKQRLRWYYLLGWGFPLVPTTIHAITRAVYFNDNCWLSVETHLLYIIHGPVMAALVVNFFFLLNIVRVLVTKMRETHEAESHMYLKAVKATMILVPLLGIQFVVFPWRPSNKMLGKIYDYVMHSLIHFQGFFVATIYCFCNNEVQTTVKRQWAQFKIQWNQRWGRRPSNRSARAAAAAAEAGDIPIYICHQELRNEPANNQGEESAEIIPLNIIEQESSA
T1 sequence (O60894 27-148): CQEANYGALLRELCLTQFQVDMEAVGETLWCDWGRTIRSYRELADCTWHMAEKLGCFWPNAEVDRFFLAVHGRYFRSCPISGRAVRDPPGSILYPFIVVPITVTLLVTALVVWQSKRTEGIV
The test is described as follows: Calcium flux assay (FLIPR Calcium 4) of inhibition of α-CGRP stimulation in CHO-K1/AMY1/Gα15 cells. Type of test: cell-based. Particulars: CHO-K1/AMY1/Gα15 calcium flux; read-out: IC50 value. As for the experimental part: Using a calcium flux assay, the dose-dependent inhibitory response of peptide antagonists of the present invention on an amylin receptor, AMY1, a CT (calcitonin) receptor/RAMP1 (receptor-activity modifying protein) complex was determined. The recombinant cell line CHO-K1/AMY1/Gα15 (GenScript, Piscataway, N.J., Catalog No. M00475) was employed in the assay. Peptide antagonist activities were tested, in duplicate, at five different concentrations, starting with 1 μM and serially diluted five-fold, in DMSO. AC187 (SEQ ID NO: 55), a known amylin receptor antagonist (available for example from Tocris Bioscience, Minneapolis, Minn., Catalog No. 3419) was used as a positive control in the assays, and human α-CGRP, a known amylin receptor agonist (SEQ ID NO:56) , (available for example from Tocris Bioscience, Minneapolis, Minn., Catalog No. 3012) was used as a positive control in the assays. The FLIPR® Calcium 4 Assay Kit (Molecular Devices, Sunnyvale, Calif.) was used.
Human α-CGRP having the amino acid sequence, NH2-[…]-NH2 (SEQ ID NO:56) and AC187 having the sequence […] (SEQ ID NO: 55) were employed as negative and positive controls, respectively. Stock solutions were further diluted in HBSS-HEPES buffer to make 5×final control solutions.
CHO-K1/AMY1/Gα15 cells were seeded in a 384-well black wall, clear bottom plate at a density of 20,000 cells/well in 20 μL of growth medium 20 hours prior to the day of the experiment and maintained at 37° C./5% CO2.
Per the assay kit protocol, dye-loading solution (at 2×final concentration) was added into the assay plate, 20 μL per well. Compound solution (at 5 ×final concentration) was added into the assay plate, 10 uL per well. The assay plate was placed into a 37° C. incubator for 1 hour, then left for 15 min at RT. The agonist plate (at 5×EC80 concentration) was placed in Source 2. The total reading time was 120 sec. The agonist was added after 20 seconds reading of the baseline and the fluorescence signal was captured for another 100 seconds (21 s to 120 s).
In screening, cells stimulated with assay buffer were chosen as the background; cells stimulated with agonist (at […] concentration) were chosen as the negative control.
Data were recorded by ScreenWorks (version 3.1) as FMD files and stored on the GenScript computer network for off-line analysis. Data acquisition and analyses was performed using ScreenWorks (version 3.1) program and exported to Excel. The average value of 20 (1 s to 20 s) seconds reading was calculated as the baseline reading and the relative fluorescent units (ΔRFU) intensity values were calculated with the maximal fluorescent units (21 s to 120 s) subtracting the average value of baseline reading.
The IC50 value of AC187 was 8 μM. The inhibitory activity of the tested peptide antagonists was normalized with the negative control (AC187) and reported as % Inhibition, calculated from the following equation: % Inhibition=(ΔRFUcompound−ΔRFUBackground)/(ΔRFUNegative control−ΔRFUBackground) * 100% Inhibition was then plotted along the Y-axis, with the test concentrations as indicated on the X-axis. The peptides were tested at indicated concentrations and stimulated with 32 nM (EC80) α-CGRP (Mean +/− SD, n=2).
Turning to “VLGKLSQELHKLQTYPRTNTGSNTY [AC187, reference compound]”, the half-maximal inhibitory concentration (IC50) stood at 8000 nM.

The same test, now with this note: at maximal test concentration (series starts with 1 μM); CHO-K1/AMY1/Gα15 cells stimulated with 32 nM (EC80) α-CGRP; n = 2; read-out: % Inhibition @ Maximal concentration (Mean +/− SD, n = 2).
`CC[C@H](C)[C@@H]1NC(=O)[C@H](C)NC(=O)[C@H]([C@@H](C)O)NC(=O)[C@H](CC(=O)O)NC(=O)[C@@H](NC(=O)[C@H](C)N)CSSC[C@@H](C(=O)N[C@H](C(=O)N[C@@H](CC(C)C)C(=O)NCC(=O)N[C@@H](CCCNC(=N)N)C(=O)N[C@@H](CC(C)C)C(=O)N[C@@H](CO)C(=O)N[C@@H](CCC(N)=O)C(=O)N[C@@H](CCC(=O)O)C(=O)N[C@@H](CC(C)C)C(=O)N[C@@H](Cc2c[nH]cn2)C(=O)N[C@@H](CCCNC(=N)N)C(=O)N[C@@H](CC(C)C)C(=O)N[C@@H](CCC(N)=O)C(=O)N[C@H](C(=O)N[C@@H](Cc2ccc(O)cc2)C(=O)N2CCC[C@H]2C(=O)N[C@@H](CCCNC(=N)N)C(=O)N[C@H](C(=O)N[C@@H](CC(N)=O)C(=O)N[C@H](C(=O)NCC(=O)N[C@@H](CO)C(=O)N[C@@H](CCCCN)C(=O)N[C@@H](C)C(=O)N[C@@H](Cc2ccccc2)C(N)=O)C(C)C)[C@@H](C)O)[C@@H](C)O)C(C)C)NC1=O` [compound 10] (H-ACDTAICVLGRLSQELHRLQTYPRTNVGSKAF-NH2; disulfide 2-7 (inferred)): the inhibition at 1 µM was 96.8%.
Take `CC(C)C[C@H](NC(=O)[C@H](CCCNC(=N)N)NC(=O)CNC(=O)[C@H](CC(C)C)NC(=O)[C@@H](NC(=O)[C@@H]1CSSC[C@H](NC(=O)[C@H](C)N)C(=O)N[C@@H](CC(N)=O)C(=O)N[C@@H](CC(C)C)C(=O)N[C@@H](CO)C(=O)N[C@@H](C)C(=O)N1)C(C)C)C(=O)N[C@@H](CO)C(=O)N[C@@H](CCC(N)=O)C(=O)N[C@@H](CCC(=O)O)C(=O)N[C@@H](CC(C)C)C(=O)N[C@@H](Cc1c[nH]cn1)C(=O)N[C@@H](CCCNC(=N)N)C(=O)N[C@@H](CC(C)C)C(=O)N[C@@H](CCC(N)=O)C(=O)N[C@H](C(=O)N[C@@H](Cc1ccc(O)cc1)C(=O)N1CCC[C@H]1C(=O)N[C@H](C(=O)N[C@@H](CC(N)=O)C(=O)N[C@H](C(=O)NCC(=O)N[C@@H](CO)C(=O)NCC(=O)N[C@H](C(=O)N1CCC[C@H]1C(N)=O)[C@@H](C)O)[C@@H](C)O)[C@@H](C)O)[C@@H](C)O` [compound 13] (H-ACNLSACVLGRLSQELHRLQTYPTNTGSGTP-NH2; disulfide 2-7 (inferred)): the inhibition at 1 µM turned out to be 95.8%.
On the same count and under the same terms, as for `CC(C)C[C@H](NC(=O)[C@H](CCCNC(=N)N)NC(=O)CNC(=O)[C@H](CC(C)C)NC(=O)[C@@H](NC(=O)[C@@H]1CSSC[C@H](NC(=O)[C@H](C)N)C(=O)N[C@@H](CC(=O)O)C(=O)N[C@@H]([C@@H](C)O)C(=O)N[C@@H](C)C(=O)N[C@@H](C)C(=O)N1)C(C)C)C(=O)N[C@@H](CO)C(=O)N[C@@H](CCC(N)=O)C(=O)N[C@@H](CCC(=O)O)C(=O)N[C@@H](CC(C)C)C(=O)N[C@@H](Cc1c[nH]cn1)C(=O)N[C@@H](CCCNC(=N)N)C(=O)N[C@@H](CC(C)C)C(=O)N[C@@H](CCC(N)=O)C(=O)N[C@H](C(=O)N[C@@H](Cc1ccc(O)cc1)C(=O)N1CCC[C@H]1C(=O)N[C@@H](CCCNC(=N)N)C(=O)N[C@H](C(=O)N[C@@H](CC(N)=O)C(=O)N[C@H](C(=O)NCC(=O)N[C@@H](CO)C(=O)N[C@@H](CCCCN)C(=O)N[C@@H](C)C(=O)N[C@@H](Cc1ccccc1)C(N)=O)C(C)C)[C@@H](C)O)[C@@H](C)O` [compound 1] (H-ACDTAACVLGRLSQELHRLQTYPRTNVGSKAF-NH2; disulfide 2-7 (inferred)), the figure is 94.4%.
Same read-out and setting: as for `CC(C)C[C@H](NC(=O)[C@H](CCCNC(=N)N)NC(=O)CNC(=O)[C@H](CC(C)C)NC(=O)[C@@H](NC(=O)[C@@H]1CSSC[C@H](NC(=O)[C@H](C)N)C(=O)N[C@@H](C(C)C)C(=O)N[C@@H](CC(C)C)C(=O)NCC(=O)N[C@@H](C)C(=O)N1)C(C)C)C(=O)N[C@@H](CO)C(=O)N[C@@H](CCC(N)=O)C(=O)N[C@@H](CCC(=O)O)C(=O)N[C@@H](CC(C)C)C(=O)N[C@@H](Cc1c[nH]cn1)C(=O)N[C@@H](CCCNC(=N)N)C(=O)N[C@@H](CC(C)C)C(=O)N[C@@H](CCC(N)=O)C(=O)N[C@H](C(=O)N[C@@H](Cc1ccc(O)cc1)C(=O)N1CCC[C@H]1C(=O)N[C@H](C(=O)N[C@@H](CC(=O)O)C(=O)N1CCC[C@H]1C(=O)N[C@@H](CO)C(=O)N[C@@H](CO)C(=O)N1CCC[C@H]1C(=O)N[C@@H](Cc1c[nH]cn1)C(=O)N[C@@H](CO)C(=O)N[C@@H](Cc1ccc(O)cc1)C(N)=O)C(C)C)[C@@H](C)O` [compound 14] (H-ACVLGACVLGRLSQELHRLQTYPVDPSSPHSY-NH2; disulfide 2-7 (inferred)), the figure is 51.9%; as for `CC(C)C[C@H](NC(=O)[C@H](CCCNC(=N)N)NC(=O)CNC(=O)[C@H](CC(C)C)NC(=O)[C@@H](NC(=O)[C@@H]1CSSC[C@H](NC(=O)[C@H](C)N)C(=O)N[C@@H](CC(N)=O)C(=O)N[C@@H](CC(C)C)C(=O)N[C@@H](CO)C(=O)N[C@@H](C)C(=O)N1)C(C)C)C(=O)N[C@@H](CO)C(=O)N[C@@H](CCC(N)=O)C(=O)N[C@@H](CCC(=O)O)C(=O)N[C@@H](CC(C)C)C(=O)N[C@@H](Cc1c[nH]cn1)C(=O)N[C@@H](CCCNC(=N)N)C(=O)N[C@@H](CC(C)C)C(=O)N[C@@H](CCC(N)=O)C(=O)N[C@H](C(=O)N[C@@H](Cc1ccc(O)cc1)C(=O)N1CCC[C@H]1C(=O)N[C@@H](CCCNC(=N)N)C(=O)N[C@H](C(=O)N[C@@H](CC(N)=O)C(=O)N[C@H](C(=O)NCC(=O)N[C@@H](CO)C(=O)N[C@@H](CCCCN)C(=O)N[C@@H](C)C(=O)N[C@@H](Cc1ccccc1)C(N)=O)C(C)C)[C@@H](C)O)[C@@H](C)O` [compound 7] (H-ACNLSACVLGRLSQELHRLQTYPRTNVGSKAF-NH2; disulfide 2-7 (inferred)), 96%; as for `CC(C)C[C@H](NC(=O)[C@H](CCCNC(=N)N)NC(=O)CNC(=O)[C@H](CC(C)C)NC(=O)[C@@H](NC(=O)[C@@H]1CSSC[C@H](NC(=O)[C@H](C)N)C(=O)N[C@@H](CC(=O)O)C(=O)N[C@@H]([C@@H](C)O)C(=O)N[C@@H](C)C(=O)N[C@@H](C(C)C)C(=O)N1)C(C)C)C(=O)N[C@@H](CO)C(=O)N[C@@H](CCC(N)=O)C(=O)N[C@@H](CCC(=O)O)C(=O)N[C@@H](CC(C)C)C(=O)N[C@@H](Cc1c[nH]cn1)C(=O)N[C@@H](CCCNC(=N)N)C(=O)N[C@@H](CC(C)C)C(=O)N[C@@H](CCC(N)=O)C(=O)N[C@H](C(=O)N[C@@H](Cc1ccc(O)cc1)C(=O)N1CCC[C@H]1C(=O)N[C@@H](CCCNC(=N)N)C(=O)N[C@H](C(=O)N[C@@H](CC(N)=O)C(=O)N[C@H](C(=O)NCC(=O)N[C@@H](CO)C(=O)N[C@@H](CCCCN)C(=O)N[C@@H](C)C(=O)N[C@@H](Cc1ccccc1)C(N)=O)C(C)C)[C@@H](C)O)[C@@H](C)O` [compound 3] (H-ACDTAVCVLGRLSQELHRLQTYPRTNVGSKAF-NH2; disulfide 2-7 (inferred)), 95.9%.
The same measure, in the same setting: as for `CC(C)C[C@H](NC(=O)[C@H](CCCNC(=N)N)NC(=O)CNC(=O)[C@H](CC(C)C)NC(=O)[C@@H](NC(=O)[C@@H]1CSSC[C@H](NC(=O)[C@H](C)N)C(=O)N[C@@H](C(C)C)C(=O)N[C@@H](CC(C)C)C(=O)NCC(=O)N[C@@H](C)C(=O)N1)C(C)C)C(=O)N[C@@H](CO)C(=O)N[C@@H](CCC(N)=O)C(=O)N[C@@H](CCC(=O)O)C(=O)N[C@@H](CC(C)C)C(=O)N[C@@H](Cc1c[nH]cn1)C(=O)N[C@@H](CCCNC(=N)N)C(=O)N[C@@H](CC(C)C)C(=O)N[C@@H](CCC(N)=O)C(=O)N[C@H](C(=O)N[C@@H](Cc1ccc(O)cc1)C(=O)N1CCC[C@H]1C(=O)N[C@@H](CCCNC(=N)N)C(=O)N[C@H](C(=O)N[C@@H](CC(N)=O)C(=O)N[C@H](C(=O)NCC(=O)N[C@@H](CO)C(=O)N[C@@H](CCCCN)C(=O)N[C@@H](C)C(=O)N[C@@H](Cc1ccccc1)C(N)=O)C(C)C)[C@@H](C)O)[C@@H](C)O` [compound 5] (H-ACVLGACVLGRLSQELHRLQTYPRTNVGSKAF-NH2; disulfide 2-7 (inferred)), the figure is 88.5%.

Staying with this test, now noted: positive control; CHO-K1/AMY1/Gα15 cells stimulated with α-CGRP; read-out: IC50 nM (assay positive control).
For the compound “VLGKLSQELHKLQTYPRTNTGSNTY [AC187, reference compound]”, the half-inhibitory concentration (IC50) was determined as 8150 nM.

A word on the IC50: it is the concentration needed to halve the response being measured.
